Values after ≈ are worked out from the molar mass of the structure shown. Numbered stars: 1 amine (or outer) side, 2 acyl side, 3 side chain; on linkers, the order of the positions; unused ones are H or OH. Square brackets hold non-standard residues; d marks the D form. Peptide text beside a SMILES is read from it. * marks the point of attachment. ξ: configuration not given here. X1 = C[C@H]1C[C@@H](C2=N[C@](C)(C(=O)[*:2])CS2)N([*:1])C1; ξNMeTyr(3-Br) = CNC(Cc1ccc(O)c(Br)c1)C(=O)O; NMeF = CN[C@@H](Cc1ccccc1)C(=O)O; Piv = CC(C)(C)C(=O)*; X2 = CCC(=O)C1CCCN1*
What was measured:
Format in all cases: cell-based
phosphorylation of ERK = assay: protein kinase inhibition: Western blot of phosphorylated ERK in PDGF-stimulated NRK cells
Protocol: (§1) NRK cells were seeded in a 96-well plate, and cultured for 3 days. A sample solution was added thereto and treated for 3 hours, followed by PDGF stimulation. Electrophoretic samples were prepared to conduct Western blot using antibodies against phosphorylated signal transduction molecules (AKT, ERK, PKD, PLCγ1, and S6 ribosomal protein) and phosphotyrosine. The effect on the intracellular signal transduction from a PDGF receptor was evaluated. […] The eIF4E, 4E-BP-1, and histone H3 bands confirmed that equal amounts of proteins subjected to electrophoresis.
(§2) Bisebromoamide (1) was added in such a manner that the final concentration became 0.01, 0.1, 1, and 10 μM, in order to determine the presence or absence of inhibition, and the inhibition pattern thereof. The effective inhibitory concentration against each signal transduction molecule activity was investigated.

[1] = test system: 39 types of human cancer cells; assay: growth inhibitory activity screening using 39 types of human cancer cells (sulforhodamine B colorimetric assay); conditions: 48 h, 39 human cancer cell lines, cultured for 2 days, read-out: average GI50 value across all of the cell lines tested
Protocol: Bisebromoamide (1) is a strong cytotoxic substance containing a high degree of D-amino acids and unusual amino acids. In particular, compounds having a 4-Me-Pro, N-Me-3-bromo-Tyr, and N-pivalamide moiety linking to 4-methylthiazoline are very rare, and the 2-Opp unit is unprecedented in natural products. Bisebromoamide (1) was subjected to screening using 39 types of human cancer cells. […] The average GI50 value across all of the cell lines tested was 40 nM.
Cancer cells were seeded in a 96-well plate. A sample solution was added thereto on the following day, and cultured for 2 days. Cell growth was evaluated by sulforhodamine B colorimetric assay. The 39 total cancer cell lines that were tested included 7 lung cancer (Lu) lines, 6 stomach cancer (St) lines, 5 colon cancer (Co) lines, 6 brain neoplasm (CNS) lines, 5 breast cancer (Br) lines, 2 renal cancer (Re) lines, 2 prostatic cancer (xPg) lines, and 1 melanoma (Me) line. The effective concentration deviation of each cancer cell stock from the mean effective drug concentration of the 39 cancer cell lines measured was calculated and expressed as the fingerprint.

[2] = test system: phosphorylation of S6 ribosomal protein (S6R); assay: protein kinase inhibition: Western blot of phosphorylated S6 ribosomal protein in PDGF-stimulated NRK cells; conditions: treated 3 hours, PDGF stimulation, 10, 1 and 0.1 μM
Protocol: as §1, §2

[3] = test system: phosphorylation of PKD/PKC; assay: protein kinase inhibition: Western blot of phosphorylated PKD/PKC in PDGF-stimulated NRK cells; conditions: treated 3 hours, PDGF stimulation, 10, 1 and 0.1 μM
Protocol: as §1, §2

phosphorylation of PLCγ1 = assay: protein kinase inhibition: Western blot of phosphorylated PLCγ1 in PDGF-stimulated NRK cells; conditions: treated 3 hours, PDGF stimulation, 10, 1 and 0.1 μM
Protocol: as §1, §2

HeLa S3 cell = assay: growth inhibitory activity against HeLa S3 cell; conditions: Homo sapiens
From the text: The present inventors conducted research on the derivatives of the compound to complete the present invention.
The cyanobacterium Lyngbya sp. collected in Okinawa Prefecture was extracted with MeOH, and partitioned between H2O and AcOEt. The resulting AcOEt layer was further partitioned between 90% MeOH and n-hexane. The 90% MeOH layer thus obtained was separated and purified with various chromatographies using the growth inhibitory activity against tumor cells as an index. As a result, Bisebromoamide (1), which is a novel peptide, was isolated.
The planar structure of the compound was primarily determined by various two-dimensional NMR spectral analyses. […] Subsequently, in order to determine the absolute configuration of Bisebromoamide (1) including eight chiral centers, acid hydrolysis was conducted using 9 M HCl. The resulting acid hydrolysate was fractionated by HPLC, obtaining fractions of Leu, N-Me-Tyr, 4-Me-Pro, N-Me-Phe, Opp, and that of a mixture of Ala and 2-methylcystine. […] Furthermore, 4-Me-Pro, Opp, Ala, and 2-methylcystine were subjected to derivatization using Marfey's reagent, and then analyzed by reversed phase HPLC. […] However, it also turned out that the Opp and 4-Me-Pro completely epimerized at a-position during the acid hydrolysis. Therefore, we reduced the ketone of Opp using NaBH4 before conducting the acid hydrolysis. […]

phosphorylation of AKT = assay: protein kinase inhibition: Western blot of phosphorylated AKT in PDGF-stimulated NRK cells; conditions: treated 3 hours, PDGF stimulation, 10, 1 and 0.1 μM
Protocol: as §1, §2

cancer cell growth = assay: inhibitory activity of derivatives against cancer cell growth
From the text: The alcohol and hydrazone were examined for their inhibitory activities against cancer cell growth and phosphorylation of ERK.

SMILES | inhibition of phosphorylation of ERK (phosphorylation of ERK; NRK cells, treated 3 hours, PDGF stimulation, 10, 1 and 0.1 μM) | GI50 [1] [nM] | effect on phosphorylation of S6 ribosomal protein (S6R) [2] | effect on phosphorylation of PKD/PKC [3] | effect on phosphorylation of PLCγ1 (phosphorylation of PLCγ1) | IC50 (HeLa S3 cell) [µg/mL] | effect on phosphorylation of AKT (phosphorylation of AKT) | inhibitory activity against phosphorylation of ERK, compared with Bisebromoamide (1) (phosphorylation of ERK) | inhibitory activity against cancer cell growth, compared with Bisebromoamide (1) (cancer cell growth)
CCC(=O)C1CCCN1C(=O)[C@H](Cc1ccccc1)N(C)C(=O)[C@@H](CC(C)C)NC(=O)[C@]1(C)CSC([C@@H]2C[C@H](C)CN2C(=O)C(Cc2ccc(O)c(Br)c2)N(C)C(=O)[C@H](C)NC(=O)C(C)(C)C)=N1 (stereo partly drawn) [Bisebromoamide (1), Bisebromoamide] (Piv-A[ξNMeTyr(3-Br)][X1][dL][NMeF]-X2) | selectively inhibited | 40 | no effect | no effect | no effect | 0.04 (≈ 0.0391 µM) | no effect |  | 
CCO [alcohol] |  |  |  |  |  |  |  | Results similar to those for Bisebromoamide (1) | Results similar to those for Bisebromoamide (1)

From patent publication US20120122797A1, “PEPTIDIC COMPOUND AND USE OF SAME” (KEIO UNIVERSITY, priority 2009, published 2012)
